In publication PMC9404711 (Antibiotics, 2022):
Read-outs that look alike come from different tables or passages of the source.

Assays:
[1] = test system: S. aureus (ATCC 29213); assay: MIC determination, broth microdilution; format: cell-based, Staphylococcus aureus; conditions: S. aureus ATCC 29213, MHB-II, 37 °C, 18–24 h, triplicate
Protocol: (§1) The following bacteria were grown in cation-adjusted Muller-Hinton broth at 37 °C with shaking: A. baumannii (ATCC 19606), E. coli (ATCC 25922), K. pneumoniae (ATCC 13883), P. aeruginosa (ATCC 27853), and S. aureus (ATCC 29213).
(§2) The MIC experiments were performed in triplicate, as described in Jensen et al.. Briefly, all peptide stock solutions were prepared by dissolving each peptide in Milli-Q water to obtain a concentration of 10 mg/mL. A bacterial concentration of 10^6 CFU/mL was obtained through the dilution of an overnight culture (MHB-II medium). When the overnight culture was prepared, the OD was measured using a spectrophotometer and when an OD value between 0.2 and 0.4 was obtained, the culture was diluted to OD = 0.002. The MIC determination was carried out in 96-well polypropylene microtitre plates. […] A final bacterial inoculum of 5 × 10^5 CFU/mL per well was obtained by adding 50 μL bacterial suspension to the microtiter plates. The plates were incubated at 37 °C for 18–24 h. To verify the CFU, 10 μL of bacteria suspension was transferred to 990 μL 0.9 % saline solution, from which a 10-fold dilution was carried out. Then, 100 μL of the dilution was plated on an LB plate and left for bacterial growth overnight at 37 °C. Colistin and vancomycin were used as the positive controls.

[2] = test system: E. coli (ATCC 25922); format: cell-based, Escherichia coli; conditions: E. coli ATCC 25922, MHB-II, 37 °C, 18–24 h, triplicate
Protocol: as §1, §2

[3] = test system: K. pneumoniae (ATCC 13883); format: cell-based, Klebsiella pneumoniae; conditions: K. pneumoniae ATCC 13883, MHB-II, 37 °C, 18–24 h, triplicate
Protocol: as §1, §2

[4] = test system: A. baumannii (ATCC 19606); format: cell-based, Acinetobacter baumannii; conditions: A. baumannii ATCC 19606, MHB-II, 37 °C, 18–24 h, triplicate
Protocol: as §1, §2

[5] = test system: P. aeruginosa (ATCC 27853); format: cell-based, Pseudomonas aeruginosa; conditions: P. aeruginosa ATCC 27853, MHB-II, 37 °C, 18–24 h, triplicate
Protocol: as §1, §2

[6] = Hydrophobicity by analytical RP-HPLC (%B at elution); format: physicochemical; conditions: chromatographic, analytical reversed-phase HPLC, Waters Symmetry C18 5 μm 4.6 × 250 mm; A: H2O + 0.1% TFA, B: 90:10 ACN-H2O + 0.1% TFA
Protocol: Peptide purity was determined as described previously by analytical RP-HPLC using a Waters 717 plus Autosampler, In-line Degasser AF, 600 Controller, and 2996 Photodiode Array Detector; the column used was a Waters Symmetry C18 column (5 μm, 4.6 mm × 250 mm, Milford, MA, USA). An aqueous acetonitrile (ACN) gradient with 0.1% TFA added (mixing eluent A: H2O + 0.1% TFA and eluent B: 90:10 ACN-H2O + 0.1% TFA) was employed using milli-Q water. Preparative RP-HPLC was performed by using a Waters XSelect Peptide CSH C18 OBDTM column (5 μm, 19 mm × 250 mm, Milford, MA, USA) with the same eluents as for analytical HPLC.
*Hydrophobicity as indicated by the percentage of mobile phase B (%B) at the peak elution time on analytical

[7] = test system: human erythrocytes; conditions: 150 μM peptide; 0.5% (v/v) red blood cell suspension in PBS, 1 h at 37 °C, absorbance 414 nm; melittin positive control, PBS negative control; three wells
Protocol: PBS served as the negative control and 5 μM melittin served as the positive control. All melittin solutions were prepared in Protein LoBind Eppendorf tubes to prevent the adsorption of melittin to the inner surface of the tubes.
Preparation of peptide solutions and melittin: A 5 μM melittin solution in PBS was prepared the day before the hemolysis experiment. First, 150 μL of this solution was transferred to each of the positive control wells and stored in the fume hood to coat the wells. On the day of the experiment, the melittin solution was discarded and the wells were washed with 3 × PBS. A 2.5 μM melittin solution in PBS was prepared and 75 μL was transferred to the wells. PBS (150 μL) was used as the negative control. A solution of each peptide was prepared by dissolving the peptide in 0.5 mL PBS to obtain a concentration of 300 μM. Each peptide solution (150 μL) was transferred to the wells in three wells each in row A, and the plate was diluted down.
Preparation of the red blood cell suspension: 1 mL of type O- whole blood in citrate was transferred to a cryotube. The whole blood was washed with 3 × PBS; adding 3, 3, and 4 mL of PBS, respectively. In between, the blood was centrifuged for 8 min (3000, 3000, and 4000 rpm, respectively) and the supernatant was removed after each centrifugation. A 0.5% (v/v) blood suspension was prepared by adding 40 μL of the washed blood cells to 8 mL of PBS. Then, 75 μL of the red blood cell suspension was transferred to each well and mixed gently. The plate was sealed and incubated for 1 h at 37 °C. After incubation, the plate was centrifuged at 4000 rpm for 10 min. Afterwards, 60 μL of the supernatant from each well was quickly transferred to an ELISA plate.
The absorbance was determined at 414 nm, and Equation (1) below was used to calculate the hemolytic activity of the peptides.

| Structure (SMILES) | MIC SA ([1]; inoculum 5 × 10^5 CFU/mL) [µg/mL] | MIC SA ([1]; value in brackets) [µM] | MIC EC ([2]; inoculum 5 × 10^5 CFU/mL) [µg/mL] | MIC EC ([2]; value in brackets) [µM] | MIC KP ([3]; inoculum 5 × 10^5 CFU/mL) [µg/mL] | MIC KP ([3]; value in brackets) [µM] | MIC AB ([4]; inoculum 5 × 10^5 CFU/mL) [µg/mL] | MIC AB ([4]; value in brackets) [µM] | MIC PA ([5]; inoculum 5 × 10^5 CFU/mL) [µg/mL] | MIC PA ([5]; value in brackets) [µM] | %B (hydrophobicity: percentage of mobile phase B at the peak elution time) [6] [%B] | % hemolysis of human erythrocytes [7] [%] |
| --- | --- | --- | --- | --- | --- | --- | --- | --- | --- | --- | --- | --- |
| CC[C@@H](C)[C@@H](NC(=O)[C@@H](CCCCN)NC(=O)[C@@H](CCCCN)NC(=O)[C@@H](Cc1ccccc1)NC(=O)[C@@H](CC(C)C)NC(=O)[C@@H](CCCCN)NC(=O)[C@H](N)CCCCN)C(=O)N[C@H](CC(C)C)C(=O)N1CCCC[C@H](C(N)=O)NC(=O)[C@@H](Cc2ccc(O)cc2)NC(=O)[C@@H](CCCNC(=N)N)NC(=O)C1 [compound 7] | > 64 | > 42.6 | > 64 | > 42.6 | > 64 | > 42.6 | > 64 | > 42.6 | > 64 | > 42.6 | 44.1 | 3 |
| CC[C@@H](C)[C@H]1NC(=O)CN(C(=O)[C@@H](CCCCN)NC(=O)[C@@H](CCCCN)NC(=O)[C@@H](Cc2ccccc2)NC(=O)[C@@H](CC(C)C)NC(=O)[C@@H](CCCCN)NC(=O)[C@H](N)CCCCN)CCCC[C@H](C(N)=O)NC(=O)[C@@H](Cc2ccc(O)cc2)NC(=O)[C@@H](CCCNC(=N)N)NC(=O)[C@@H](CC(C)C)NC1=O [compound 9] | > 64 | > 42.6 | > 64 | > 42.6 | > 64 | > 42.6 | > 64 | > 42.6 | > 64 | > 42.6 | 46.6 | 3 |
| CCCCCCCCCC(=O)N[C@H](CCCCN)C(=O)N[C@H](CCCCN)C(=O)N[C@H](CC(C)C)C(=O)N[C@H](Cc1ccccc1)C(=O)N[C@H](CCCCN)C(=O)N[C@H](CCCCN)C(=O)N[C@@H](C(=O)N[C@H](CC(C)C)C(=O)N1CCCC[C@H](C(N)=O)NC(=O)[C@@H](Cc2ccc(O)cc2)NC(=O)[C@@H](CCCNC(=N)N)NC(=O)C1)[C@H](C)CC [compound 10] | 4 | 2.4 | 4 | 2.4 | 8 | 4.8 | 4 | 2.4 | 4 | 2.4 | 62.7 | 81 |
| CCCCCCCCCCCCCC(=O)N[C@H](CCCCN)C(=O)N[C@H](CCCCN)C(=O)N[C@H](CC(C)C)C(=O)N[C@H](Cc1ccccc1)C(=O)N[C@H](CCCCN)C(=O)N[C@H](CCCCN)C(=O)N[C@@H](C(=O)N1CCCC[C@H](C(N)=O)NC(=O)[C@@H](Cc2ccc(O)cc2)NC(=O)[C@@H](CCCNC(=N)N)NC(=O)[C@@H](CC(C)C)NC(=O)C1)[C@H](C)CC [compound 15] | 4 | 2.3 | 4 | 2.3 | 16 | 9.3 | 4 | 2.3 | 8 | 4.6 | 78.5 | 83 |
